From PMC12652222 (International Journal of Molecular Sciences, 2025)
Several values for one entry are separate records, joined by “and”; a condition that tells them apart may be missing. Equal entries are not always repeated.

Legend:
[1] = Total antioxidant capacity (TAC); assay type: biochemical; conditions: mean ± SE, n = 3
Experimental: (§1) The antioxidant activity was assessed using the iron reducing power (IRP) and the total antioxidant capacity (TAC). Ascorbic acid served as a standard to calculate the inhibition percentages (%) and the median inhibitory concentration (IC50) of each tested compound against the following radicals: nitric oxide (NO), hydroxyl (OH), hydrogen peroxide (H2O2), ABTS [79], and DPPH [80].

[2] = Iron-reducing power (IRP); assay type: biochemical; conditions: mean ± SE, n = 3
Experimental: as §1

[3] = DPPH radical scavenging; assay type: biochemical; conditions: mean ± SE, n = 3; for DPPH (%): inhibition % at 20 µg/mL
Experimental: as §1

[4] = ABTS radical scavenging; assay type: biochemical; conditions: mean ± SE, n = 3; for ABTS (%): inhibition % at 20 µg/mL
Experimental: as §1

[5] = Nitric oxide (NO) radical scavenging; assay type: biochemical; conditions: mean ± SE, n = 3; for NO (%): inhibition % at 20 µg/mL
Experimental: as §1

[6] = Hydroxyl (OH) radical scavenging; assay type: biochemical; conditions: mean ± SE, n = 3; for OH (%): inhibition % at 20 µg/mL
Experimental: as §1

[7] = Hydrogen peroxide (H2O2) scavenging; assay type: biochemical; conditions: mean ± SE, n = 3; for H2O2 (%): inhibition % at 20 µg/mL
Experimental: as §1

[8] = target: acetylcholinesterase (AChE) (Homo sapiens, UniProt P22303); test: biochemical; conditions: mean ± SE, n = 3; for IC50: read-out: AChE IC50 (µg/mL) (converted)
Chain of acetylcholinesterase (AChE) (P22303 32-614, species assumed): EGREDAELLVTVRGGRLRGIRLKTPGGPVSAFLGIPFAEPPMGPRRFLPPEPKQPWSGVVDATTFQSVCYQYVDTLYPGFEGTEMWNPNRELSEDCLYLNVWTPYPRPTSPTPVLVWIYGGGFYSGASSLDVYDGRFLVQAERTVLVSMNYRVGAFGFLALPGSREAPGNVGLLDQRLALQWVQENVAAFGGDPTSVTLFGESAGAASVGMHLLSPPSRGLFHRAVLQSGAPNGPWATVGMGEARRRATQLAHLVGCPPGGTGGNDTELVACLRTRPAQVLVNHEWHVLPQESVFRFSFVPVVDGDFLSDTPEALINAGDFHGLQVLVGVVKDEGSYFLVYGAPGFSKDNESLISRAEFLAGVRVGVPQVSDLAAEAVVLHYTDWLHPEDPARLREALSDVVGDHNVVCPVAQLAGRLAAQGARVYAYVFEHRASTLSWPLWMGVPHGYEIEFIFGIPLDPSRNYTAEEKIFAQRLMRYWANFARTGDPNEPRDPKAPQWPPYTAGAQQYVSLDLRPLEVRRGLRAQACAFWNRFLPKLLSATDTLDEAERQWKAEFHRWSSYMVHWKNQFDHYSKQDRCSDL
Experimental: The inhibition percentage and IC50 of the acetylcholinesterase (AChE) enzyme were measured using the Ellman method.

[9] = test system: protein denaturation; test: Protein denaturation inhibition (anti-arthritic); assay type: biochemical; set-up: concentration or dose not given beside the values; conditions: mean ± SE, n = 3
Experimental: (§2) Anti-arthritic activity was evaluated using diclofenac sodium as the reference drug. The inhibition percentage and IC50 were determined for protein denaturation and the proteinase enzyme.

[10] = target: proteinase enzyme; test: Proteinase inhibition (anti-arthritic); assay type: biochemical; set-up: Proteinase Inhibition (%): concentration or dose not given beside the values; conditions: mean ± SE, n = 3
Experimental: as §2

[11] = target: T1, α-amylase (Homo sapiens, UniProt P04746); test: α-Amylase inhibition; assay type: biochemical; conditions: read-out: α-Amylase Inhibition (%)
T1 sequence (P04746 16-511): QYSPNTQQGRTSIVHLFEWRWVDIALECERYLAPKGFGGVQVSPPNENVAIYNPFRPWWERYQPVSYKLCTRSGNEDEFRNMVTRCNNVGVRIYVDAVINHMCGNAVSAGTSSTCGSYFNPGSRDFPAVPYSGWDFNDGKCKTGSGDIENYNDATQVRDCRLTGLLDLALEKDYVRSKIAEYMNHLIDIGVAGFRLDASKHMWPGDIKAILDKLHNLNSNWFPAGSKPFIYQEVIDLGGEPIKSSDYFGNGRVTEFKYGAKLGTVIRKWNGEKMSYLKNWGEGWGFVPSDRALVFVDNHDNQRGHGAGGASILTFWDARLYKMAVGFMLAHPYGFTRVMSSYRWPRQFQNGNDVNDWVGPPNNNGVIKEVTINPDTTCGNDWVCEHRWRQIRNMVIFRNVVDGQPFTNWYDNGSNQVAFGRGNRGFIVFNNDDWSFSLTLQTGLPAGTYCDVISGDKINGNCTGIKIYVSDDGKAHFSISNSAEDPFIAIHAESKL
Experimental: (§3) The IC50 and inhibition percentages (Inhib. %) of the enzymes α-amylase and α-glucosidase were calculated.

[12] = target: α-glucosidase; test: α-Glucosidase inhibition; assay type: biochemical
Experimental: as §3

| SMILES | TAC (mg Gallic Acid/g) [1] | IRP [2] | DPPH (%) [3] | ABTS (%) [4] | ABTS radical scavenging IC50 [4] | NO (%) [5] | NO radical scavenging IC50 [5] | OH (%) [6] | OH radical scavenging IC50 [6] | H2O2 (%) [7] | H2O2 scavenging IC50 [7] | inhibition at 20 µg/mL [8] | IC50 [8] | Protein Denaturation Inhibition (%) [9] | Proteinase IC50 [10] | Proteinase Inhibition (%) [10] | inhibition at 20 µg/mL [11] | α-Glucosidase IC50 [12] | DPPH radical scavenging IC50 [3] | inhibition of α-glucosidase ([12]; at 20 µg/mL) |
| --- | --- | --- | --- | --- | --- | --- | --- | --- | --- | --- | --- | --- | --- | --- | --- | --- | --- | --- | --- | --- |
| O=c1/c(=C\[C@H](O)[C@@H](O)[C@H](O)[C@H](O)CO)sc2nc3sc4c(c3c(=O)n12)CCC4 [7a, (E)-2-((2S,3R,4R,5R)-2,3,4,5,6-pentahydroxyhexylidene)-7,8-dihydro-5H,6H-cyclopenta-[4,5]thieno [2,3-d]thiazolo [3,2-a]pyrimidine-3,5(2H)-dione] | 17.44 mg Gallic Acid/g and 17.44 ± 0.22 mg Gallic Acid/g | 10.29 µg/mL and 10.29 ± 0.22 µg/mL | 14.04 ± 0.22% | 17.19 ± 0.22% | 18.83 ± 0.22 µg/mL | 8.29 ± 0.22% | 48.89 ± 0.78 µg/mL | 7.21 ± 0.19% | 65.77 ± 2.12 µg/mL | 8.07 ± 0.21% | 73.10 ± 1.67 µg/mL | 5.75 ± 0.18% | 117 µM | 11.62 ± 0.18% | 62.33 ± 1.77 µg/mL | 7.45 ± 0.18% | 13.4 ± 0.21% | 31.92 ± 0.89 µg/mL | – | – |
| O=c1/c(=C\[C@@H](O)[C@@H](O)[C@H](O)[C@H](O)CO)sc2nc3sc4c(c3c(=O)n12)CCC4 [7b, (E)-2-((2R,3R,4R,5R)-2,3,4,5,6-pentahydroxyhexylidene)-7,8-dihydro-5H,6H-cyclopenta [4,5]thieno [2,3-d]thiazolo [3,2-a]pyrimidine-3,5(2H)-dione] | 21.59 ± 0.25 mg Gallic Acid/g | 14.44 ± 0.25 µg/mL | 18.19 ± 0.25% | 21.34 ± 0.25% | 15.17 ± 0.15 µg/mL | 12.44 ± 0.25% | 32.58 ± 0.96 µg/mL | 10.82 ± 0.21% | 43.75 ± 0.52 µg/mL | 12.12 ± 0.24% | 48.67 ± 0.85 µg/mL | 5.14 ± 0.16% | 131 µM | 15.06 ± 0.20% | 42.61 ± 0.37 µg/mL | 10.89 ± 0.20% | 17.3 ± 0.24% | 19.96 ± 0.34 µg/mL | 21.36 ± 0.44 µg/mL | – |
| O=c1/c(=C\[C@H](O)[C@@H](O)[C@@H](O)[C@H](O)CO)sc2nc3sc4c(c3c(=O)n12)CCC4 [7c, (E)-2-((2S,3R,4S,5R)-2,3,4,5,6-pentahydroxyhexylidene)-7,8-dihydro-5H,6H-cyclopenta [4,5]thieno [2,3-d]thiazolo [3,2-a]-pyrimidine-3,5(2H)-dione] | 20.40 ± 0.26 mg Gallic Acid/g | 13.25 ± 0.26 µg/mL | 17.00 ± 0.26% | 20.15 ± 0.26% | 16.06 ± 0.19 µg/mL | 11.25 ± 0.26% | 36.00 ± 0.45 µg/mL | 9.78 ± 0.22% | 48.42 ± 1.40 µg/mL | 10.96 ± 0.25% | 53.83 ± 1.05 µg/mL | 5.87 ± 0.19% | 115 µM | 14.08 ± 0.21% | 46.88 ± 1.21 µg/mL | 9.91 ± 0.21% | 16.2 ± 0.24% | 22.37 ± 0.53 µg/mL | 22.84 ± 0.23 µg/mL | – |
| O=c1/c(=C\[C@H](O)[C@@H](O)[C@H](O)CO)sc2nc3sc4c(c3c(=O)n12)CCC4 [7d, (E)-2-((2S,3R,4R)-2,3,4,5-tetrahydroxypentylidene)-7,8-dihydro-5H,6H-cyclopenta [4,5]thieno [2,3-d]thiazolo [3,2-a]-pyrimidine-3,5(2H)-dione] | 20.09 ± 0.23 mg Gallic Acid/g | 12.94 ± 0.23 µg/mL | 16.69 ± 0.23% | 19.84 ± 0.23% | 16.31 ± 0.16 µg/mL | 10.94 ± 0.23% | 37.06 ± 1.13 µg/mL | 9.51 ± 0.20% | 49.77 ± 0.65 µg/mL | 10.65 ± 0.22% | 55.36 ± 1.03 µg/mL | 4.4 ± 0.14% | 165 µM | 13.82 ± 0.19% | 48.10 ± 0.46 µg/mL | 9.65 ± 0.19% | 15.9 ± 0.22% | 23.09 ± 0.41 µg/mL | 23.28 ± 0.49 µg/mL | – |
| O=c1/c(=C\[C@@H](O)[C@H](O)[C@H](O)CO)sc2nc3sc4c(c3c(=O)n12)CCC4 [7e, (E)-2-((2R,3S,4R)-2,3,4,5-tetrahydroxypentylidene)-7,8-dihydro-5H,6H-cyclopenta [4,5]thieno [2,3-d]thiazolo [3,2-a]-pyrimidine-3,5(2H)-dione] | 18.77 ± 0.21 mg Gallic Acid/g | 11.62 ± 0.21 µg/mL | 15.37 ± 0.21% | 18.52 ± 0.21% | 17.47 ± 0.17 µg/mL | 9.62 ± 0.21% | 42.12 ± 1.33 µg/mL | 8.37 ± 0.19% | 56.57 ± 0.81 µg/mL | 9.37 ± 0.21% | 62.92 ± 1.25 µg/mL | 4.11 ± 0.13% | 176 µM | 12.73 ± 0.18% | 54.22 ± 0.58 µg/mL | 8.56 ± 0.18% | 14.6 ± 0.2% | 26.75 ± 0.52 µg/mL | 25.27 ± 0.54 µg/mL | – |
| O=c1/c(=C\[C@H](O)[C@@H](O)[C@H](O)[C@H](O)CO)sc2nc3sc4c(c3c(=O)n12)CCCC4 [8a, (E)-2-((2S,3R,4R,5R)-2,3,4,5,6-pentahydroxyhexylidene)-6,7,8,9-tetrahydro-5H-benzo [4,5]thieno [2,3-d]thiazolo [3,2-a]-pyrimidine-3,5(2H)-dione] | 13.95 ± 0.18 mg Gallic Acid/g | 6.80 ± 0.18 µg/mL | 10.55 ± 0.18% | 13.70 ± 0.18% | 23.63 ± 0.28 µg/mL | 4.80 ± 0.18% | 84.51 ± 2.12 µg/mL | 4.17 ± 0.15% | 113.71 ± 4.73 µg/mL | 4.67 ± 0.17% | 126.37 ± 4.09 µg/mL | 5.81 ± 0.18% | 112 µM | 8.74 ± 0.15% | 101.84 ± 3.59 µg/mL | 4.57 ± 0.15% | 10.1 ± 0.17% | 64.26 ± 2.84 µg/mL | 36.82 ± 0.42 µg/mL | – |
| C[C@H]1O[C@H](O[C@H]2[C@H](O)[C@@H](O)[C@@H](O[C@H]3[C@H](O)[C@@H](O)C(O)O[C@@H]3CO)O[C@@H]2CO)[C@H](O)[C@@H](O)[C@@H]1N[C@H]1C=C(CO)[C@@H](O)[C@H](O)[C@H]1O (some centres unmarked) [Acarbose, reference compound] | – | – | – | – | – | – | – | – | – | – | – | – | – | – | – | – | 69.85 ± 0.16% | – | – | 63.10 ± 0.16% |
| O=C(O)Cc1ccccc1Nc1c(Cl)cccc1Cl [Diclofenac sodium, reference compound] | – | – | – | – | – | – | – | – | – | – | – | – | – | 60.74 ± 0.14% | 8.20 ± 0.06 µg/mL | 56.57 ± 0.14% | – | – | – | – |
| O=C1O[C@H]([C@@H](O)CO)C(O)=C1O [ascorbic acid, reference compound] | 78.44 mg Gallic Acid/g | 67.49 µg/mL | – | – | 4.35 µg/mL | – | 6.18 µg/mL | – | 8.31 µg/mL | – | 9.24 µg/mL | – | – | – | – | – | – | – | 5.45 µg/mL | – |
